Twelve compounds from PubChem BioAssay (NCI) can be followed below.

What all share (assay): NCI anticancer screen, dose series, 48 h
Experiment [1] deals with COLO 205 colon.
Experiment [2] concerns ACHN renal.
Experiment [3] has as its system OVCAR-3 ovarian.
For experiment [4], the system named is HOP-62 NSCLC.
The subject of experiment [5] is EKVX NSCLC.
Experiment [6] deals with HCC-2998 colon.
In experiment [7] the test system is 786-0 renal.
Experiment [8] deals with LOX IMVI melanoma.
Experiment [9] relates to MALME-3M melanoma.
Experiment [10] deals with CAKI-1 renal.

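Growth conditions: 96-well plates. Treatment: test compound, 48 hours, 5 concentrations. Analysis: linear interpolation between bracketing concentrations; unreached endpoints set to highest concentration. TGI denotes the concentration required for complete inhibition of growth.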 Where a SMILES comes first, the peptide text is derived from it. The star is where a group is joined. Boc = CC(C)(C)OC(=O)*; OBn = c1ccc(CO*)cc1; Bn = c1ccc(C*)cc1

For the compound `Cc1cc2nc3c(C#N)c(-c4ccccc4)/c(=C\Nc4cccc(C(F)(F)F)c4)c(=O)n3c2cc1C`, the TGI in [1] was above 100 µM; in [2] it was above 100 µM; in [3], 54.4 µM; in experiment [4], 66.9 µM; in experiment [5], above 100 µM; in [6], above 100 µM. The TGI in [7], in experiment [8], in experiment [9] and in experiment [10] was above 100 µM each time.

Take `Cn1c2ccccc2n2c(=O)c(-c3ccc(O)cc3)nnc12`: the TGI in experiment [1], in [2], in experiment [4], in experiment [5], in experiment [6] and in experiment [7] was above 100 µM in each case. The TGI in [8], in [9] and in experiment [10] was above 100 µM each time.

With `COC(=O)c1c(C)nc(C)c(N=O)c1-c1ccccc1C(F)(F)F`, the TGI in [1] is above 100 µM; in experiment [2] it was above 100 µM; in [3], 31.3 µM; in experiment [4], above 100 µM; in experiment [5] it was above 100 µM; in experiment [6], above 100 µM. Besides, the TGI in experiment [7] is 31.5 µM; in experiment [8], 30.8 µM; in experiment [9], 30.2 µM; in [10], 23 µM.

`CCOc1ccc(N=NC2C(=O)N(C(=O)CC(=O)Nc3ccc(Cl)cc3)N=C2C)cc1` (stereo not drawn): the TGI in experiment [1], in experiment [2], in experiment [3], in [4], in experiment [5] and in experiment [6] was above 100 µM each time. Also, the TGI in [7], in experiment [8], in [9] and in experiment [10] was above 100 µM throughout.

As to `O=C(O)CCCN1CCCCC1`, the TGI in experiment [2], in experiment [3], in experiment [4], in experiment [5], in experiment [6] and in experiment [7] was above 100 µM throughout. Also, the TGI in [8], in experiment [9] and in [10] was above 100 µM in each case.

As for `Nc1nc(Cl)cc(NCC2(CO)CC(CCCCc3ccccc3)C2)n1` (stereo not drawn), the TGI in experiment [1], in [2], in [3], in experiment [4], in experiment [5] and in experiment [6] was above 100 µM throughout. Moreover, the TGI in experiment [7], in experiment [8], in experiment [9] and in experiment [10] was above 100 µM throughout.

`C[N+](C)(C)CCCCCc1c2nc(c(CCCCC[N+](C)(C)C)c3ccc([nH]3)c(CCCCC[N+](C)(C)C)c3ccc([nH]3)c(CCCCC[N+](C)(C)C)c3nc1C=C3)C=C2`: the TGI in experiment [1], in experiment [2], in [3], in [4], in experiment [5] and in experiment [6] was above 100 µM each time. In addition, the TGI in experiment [7], in experiment [8], in [9] and in experiment [10] was above 100 µM each time.

With `CC(C)CC(NC(=O)C(Cc1ccccc1)NC(=O)C(COCc1ccccc1)NC(=O)OC(C)(C)C)C(=O)OCc1ccccc1` (stereo not drawn) (Boc-Ser(Bn)-Phe-Leu-OBn; configuration not given here), the TGI is 43.9 µM in experiment [1]; 33.1 µM in experiment [2]; above 100 µM in experiment [3]; above 100 µM in [4]; 61.5 µM in experiment [5]; 27.8 µM in [6]. Moreover, the TGI in [7] was 30.8 µM; in experiment [8], 40.1 µM; in [9], above 100 µM; in [10], above 100 µM.

For `CCOC(=O)c1c(OCC)[nH]c(=O)c(C(c2ccc(F)cc2)c2c(O)c(C(=O)OCC)c(OCC)[nH]c2=O)c1O`, the TGI in [1] was determined as 79.8 µM; in experiment [2] it was 31.7 µM; in [3] it was 39.7 µM; in experiment [4], 36.1 µM; in experiment [5] it was 33.2 µM; in [6], 39 µM. Besides, the TGI was 39.7 µM in [7], 33.1 µM in experiment [8], 29.5 µM in experiment [9] and 42.4 µM in experiment [10].

As to `COc1ccc(OC)c2c1C[C@@H]1C(C#N)N3[C@H](Cc4c(OC)ccc(OC)c4[C@@H]3C)C(=O)N1[C@H]2C` (stereo partly drawn), the TGI was 3.52 µM in experiment [1]; 9.53 µM in experiment [2]; 5.2 µM in experiment [3]; above 57.5 µM in experiment [4]; 20.5 µM in [5]; 14.4 µM in experiment [6]. Besides, the TGI in experiment [7] stood at 7.72 µM; in experiment [8], 5.95 µM; in experiment [9], 8.61 µM; in experiment [10], 30.3 µM.

Take `Cc1ccc(Nc2ncnc3sc(SCc4ccccc4)nc23)cc1`: the TGI in [1], in experiment [2], in [3], in [4], in experiment [5] and in experiment [6] was above 100 µM throughout. In addition, the TGI in experiment [7], in [8], in [9] and in experiment [10] was above 100 µM in each case.

For `CC(=O)c1ccc2c(c1)CC1(C2)Cc2cc3c(cc2C1)C(=O)CC3` (stereo not drawn), the TGI was 1.66 µM in experiment [1]; 35.2 µM in experiment [2]; 5.96 µM in experiment [3]; 16.1 µM in experiment [4]; above 89.6 µM in experiment [5]; 7.48 µM in [6]. Moreover, the TGI in [7] was found to be 20.9 µM; in experiment [8] it was 28.8 µM; in experiment [9] it was 25.7 µM; in [10] it was 33.5 µM.
